The results in this text go back to patent publication US20040014689A1, “Endoparaciticidal and ectoparasiticidal agents” (priority 1996, published 2004).

Assay [1] deals with Heterakis spumosa. Description: Example D: in vivo nematode test, Heterakis spumosa in mice. The conditions noted are these: oral. As for the experimental part:
Heterakis spumosa in Mice
Mice were experimentally infected with nematodes of the species Heterakis spumosa. Specifically, the mice were administered Heterakis spumosa orally as 90 embryonate eggs.
After the prepatency period had expired, the suspended active compounds of Example 2 were administered orally on day 46 after the infection.
(§1) Determination of the Activity:
The mice are selected on day 54 after the infection. The adult parasites are counted in the colon and caecum using a microscope. The success of treatment in the dose group is compared to the untreated control group.

In assay [2] the test system is Nematospiroides dubius. Put plainly: Use Example C: in vivo nematode test, Nematospiroides dubius in mice. As to conditions: oral. As for the experimental part: Nematospiroides dubius in Mice
Mice were experimentally infected with nematodes of the species Nematospiroides dubius. Specifically, the mice were administered Nematospiroides dubius orally as 60 filariform larvae.
After the prepatency period had expired, the suspended active compounds of Example 2 were administered orally on day 12 after the infection.
as §1
The mice are selected on day 20 after the infection. The adult parasites in the Duodenum are counted by means of a compressorium. The success of treatment in the dose group is compared to the untreated control group.

Where [3] appears, read: ivermectin B1a/B1b 0.1 mg/kg alone.

Consider “22,23-Dihydroavermectin B1a/B1b [Ivermectin B1a/B1b]”, for which the “Reduction rate [%]” value in assay [1] (setting [3]) was less than 50%; in assay [2] (setting [3]) it was 0%.

On to `O=[N+]([O-])NC1=NCCN1Cc1ccc(Cl)nc1` [Imidacloprid, 1-[(6-chloro-3-pyridinyl)methyl]-N-nitro-2-imidazolidinium], for which the “Reduction rate [%]” value in assay [1] (imidacloprid 5.0 mg/kg alone), in assay [1] (imidacloprid 10.0 mg/kg alone), in assay [1] (imidacloprid 25.0 mg/kg alone), in assay [1] (imidacloprid 50.0 mg/kg alone), in assay [2] (imidacloprid 25.0 mg/kg alone) and in assay [2] (imidacloprid 50.0 mg/kg alone) was 0% throughout.
